Assay results taken from patent US9751885B2, “Cyclopropanamine compound and use thereof” (Takeda Pharmaceutical Company Limited, priority 2012, dated 2017).
Where a name gives a salt, the structure may show the parent alone. Read-outs that look alike come from different tables or passages of the source.

What was measured:
MAO-A enzyme = MAO-A enzyme (Homo sapiens (Human), UniProt P21397); assay: Measurement of MAO-A inhibitory activity (MAO-Glo Assay); format: biochemical
human LSD1(172-833) = human LSD1(172-833) (Homo sapiens (Human), UniProt O60341); assay: Measurement of LSD1 inhibitory activity (time-resolved fluorescence, biotin-histone H3 mono methylated K4 peptide); format: biochemical
Protocol: When the turbidity reached 500 Klett units, the culture temperature was changed to 16° C., IPTG (Isopropyl β-D-1-thiogalactopyranoside) having a final concentration of 0.5 mM was added to induce expression, and the cells were cultured further for 14 hr. The culture medium was centrifuged at 6,000 g for 15 min, and Escherichia coil pellets were recovered.
Using Branson ultrasonic disintegrator, the suspension was disrupted by ultrasonication for 3 min, and centrifuged at 33,000 g for 60 min, and the supernatant was recovered. […] It was concentrated to 10 mL with AmiconUltra (NWCO 30K) (Millipore Japan), and purified with HiLoad 26/60 Superdex 200 pg column (GE Healthcare) equilibrated with Buffer A to give hLSD1 purified product (8.4 mg). The protein concentration of hLSD1 was measured by BCA Protein Assay Kit (Thermo Fisher Scientific K.K.) using bovine serum albumin as the standard.
(5) Measurement of LSD1 Inhibitory Activity
After reaction at room temperature for 5 min, 1 mM 2-PCPA solution was added 5 μL to terminate the reaction. A detection solution ([…] potassium fluoride, 0.1% BSA) containing europium-labeled anti-histone H3 antibody (Wako Pure Chemical Industries, Ltd.) and Streptavidin-XL665 (Cisbio) was further added by 5 μL, and the mixture was left standing for 60 min.

MAO-B enzyme = MAO-B enzyme (Homo sapiens (Human), UniProt P27338); assay: Measurement of MAO-B inhibitory activity (MAO-Glo Assay); conditions: read-out: MAO-B IC50 value;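 also: luminescence read-out, compound preincubated 10 min with enzyme then reacted 60 min at room temperature, inhibition relative to enzyme reaction without compound, blank lacking enzyme and compound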
Chain of MAO-B enzyme (P27338 whole entry): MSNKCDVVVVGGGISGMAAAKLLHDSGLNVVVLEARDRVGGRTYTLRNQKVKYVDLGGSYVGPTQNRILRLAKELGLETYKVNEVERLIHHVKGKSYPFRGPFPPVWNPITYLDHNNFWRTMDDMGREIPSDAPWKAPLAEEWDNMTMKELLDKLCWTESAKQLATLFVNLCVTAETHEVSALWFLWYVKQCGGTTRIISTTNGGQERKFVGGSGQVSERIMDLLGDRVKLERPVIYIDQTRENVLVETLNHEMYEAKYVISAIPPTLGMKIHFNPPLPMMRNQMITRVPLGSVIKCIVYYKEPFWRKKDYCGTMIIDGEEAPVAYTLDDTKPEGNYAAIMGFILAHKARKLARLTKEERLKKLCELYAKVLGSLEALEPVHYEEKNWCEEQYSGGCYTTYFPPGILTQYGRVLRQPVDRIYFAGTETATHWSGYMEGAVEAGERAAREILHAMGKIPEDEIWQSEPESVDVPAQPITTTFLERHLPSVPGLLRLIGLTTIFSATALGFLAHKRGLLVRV
Protocol: The MAO-B inhibitory activity evaluation described below followed the protocol of MAO-Glo (registered trademark) Assay of Promega KK.
A test compound dissolved in 4% DMSO was added by 12.5 μL to 25 μL reaction solution (100 mM HEPES (pH 7.5), 5% glycerol, 10% DMSO) containing 400 ng of MAO-B enzyme (Sigma-Aldrich Co. LLC.), and the mixture was reacted at room temperature for 10 min. […] After reaction at room temperature for 60 min, Luciferine detection reagent (Promega KK) (50 μL) was added to terminate the reaction. After reaction at room temperature for 20 min with stirring, the luminescence was measured by Envision (PerkinElmer). The MAO-B inhibitory rate (%) of the test compound was calculated by the following formula. inhibitory rate(%)=(1−(test compound count−blank)÷(control−blank))×100
The count of the MAO-B enzyme reaction mixture under compound non-addition conditions is indicated as control, and the count under compound non-addition and MAO-B enzyme non-addition conditions is indicated as blank.

[1] = Evaluation of hippocampal distribution in mouse; format: in vivo; conditions: male ICR mice, 10 mg/kg oral; for concentration at 1 h / Kp at 1 h: 1 hr after administration; for Kp at 1 h / Kp at 0.5 h: hippocampus/plasma, read-out: hippocampus/plasma concentration ratio (mean); for concentration at 0.5 h / Kp at 0.5 h: 0.5 hr after administration
Protocol: Evaluation of Hippocampal Distribution in Mouse
(§1) Male ICR mice (hereinafter mice) were acclimated for at least one week in a rearing facility. The mice were raised in a rearing room with controlled temperature and humidity under a 12:12 hour light-dark cycle, and allowed free ingestion of feed and water.
The compounds were suspended in 0.5% methylcellulose/0.02% citric acid/distilled water and orally administered. All compounds were administered to the mice at a dose of 10 mg/kg (body weight).
Blood samples were collected at 0.5 hr, or 1 hr, or 1.5 hr from compound administration, and the hippocampus was isolated simultaneously. The plasma concentration and hippocampus concentration of each test compound were measured by the LC/MS/MS method, the ratio (hippocampus/plasma concentration ratio) was calculated, and distribution into hippocampus was evaluated.

[2] = tested on: white blood cell number, red blood cell number, platelet number; assay: Evaluation of blood cell number in mouse; format: in vivo; conditions: oral, Day 2 after administration
Protocol: Evaluation of Blood Cell Number in Mouse
as §1
The compounds were suspended in 0.5% methylcellulose/0.02% citric acid/distilled water and orally administered. All compounds were administered to the mice at a dose of 1 mg/kg, 10 mg/kg, 50 mg/kg or 100 mg/kg (body weight). On Day 2 after the administration of the compound, the whole blood was collected.
Using Sysmex XT-1800i (Sysmex Corporation), the white blood cell number, red blood cell number, and platelet number in the collected whole blood per unit volume were measured. The influence of each compound on each blood cell number was determined by comparing the number with the mean of each blood cell number of the mouse without administration of the compound (control group), and the numerical value of each blood cell number of a mouse with the administration of the compound is shown in percentage. percentage (%) of blood cell number of compound administration group as compared to control group=(mean blood cell number of compound administration group mean blood cell number of compound non-administration group)×100

[3] = hippocampus, read-out: hippocampus concentration (mean)
[4] = plasma, read-out: plasma concentration (mean)

Chain of MAO-A enzyme (P21397 whole entry): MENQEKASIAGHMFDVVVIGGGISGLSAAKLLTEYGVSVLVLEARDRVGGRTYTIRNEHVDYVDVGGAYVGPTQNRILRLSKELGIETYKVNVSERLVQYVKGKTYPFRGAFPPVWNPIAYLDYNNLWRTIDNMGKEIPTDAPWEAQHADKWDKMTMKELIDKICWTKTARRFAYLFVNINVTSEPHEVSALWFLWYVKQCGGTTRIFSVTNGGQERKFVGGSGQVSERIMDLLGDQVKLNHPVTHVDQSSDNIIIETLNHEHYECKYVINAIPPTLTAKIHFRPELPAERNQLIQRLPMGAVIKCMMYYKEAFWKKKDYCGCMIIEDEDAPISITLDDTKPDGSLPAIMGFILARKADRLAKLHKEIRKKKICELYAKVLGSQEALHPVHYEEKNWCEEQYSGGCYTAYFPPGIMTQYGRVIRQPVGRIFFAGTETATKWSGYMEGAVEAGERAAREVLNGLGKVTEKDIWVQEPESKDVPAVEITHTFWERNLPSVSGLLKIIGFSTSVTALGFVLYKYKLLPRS

For `N[C@@H]1C[C@H]1c1ccc(C(=O)Nc2ccccc2)cc1` (relative stereo) [Example 1, 4-(trans-2-aminocyclopropyl)-N-phenylbenzamide hydrochloride], the IC50 (MAO-A enzyme) was 100 nM, the IC50 (human LSD1(172-833)) was < 100 nM and the IC50 (MAO-B enzyme) was 3200 nM.
With `N[C@@H]1C[C@H]1c1ccc(C(=O)NCc2ccccc2)cc1` (relative stereo) [Example 2, 4-(trans-2-aminocyclopropyl)-N-benzylbenzamide hydrochloride] the IC50 (MAO-A enzyme) was 100 nM, the IC50 (human LSD1(172-833)) was < 100 nM and the IC50 (MAO-B enzyme) was > 10000 nM.
In the case of `CN(C(=O)c1ccc([C@@H]2C[C@H]2N)cc1)c1ccccc1` (relative stereo) [Example 3, 4-(trans-2-aminocyclopropyl)-N-methyl-N-phenylbenzamide hydrochloride], the IC50 (MAO-A enzyme) is reported as 250 nM, the IC50 (human LSD1(172-833)) is reported as < 100 nM and the IC50 (MAO-B enzyme) is reported as > 10000 nM.
In the case of `N[C@@H]1C[C@H]1c1ccc(C(=O)Nc2cccc(C(F)(F)F)c2)cc1` (relative stereo) [Example 4, 4-(trans-2-aminocyclopropyl)-N-(3-(trifluoromethyl)phenyl)benzamide hydrochloride], the IC50 (MAO-A enzyme) is reported as 190 nM, the IC50 (human LSD1(172-833)) is reported as < 100 nM and the IC50 (MAO-B enzyme) is reported as 540 nM.
For `N[C@@H]1C[C@H]1c1ccc(C(=O)NC2CCCCC2)cc1` (relative stereo) [Example 6, 4-(trans-2-aminocyclopropyl)-N-cyclohexylbenzamide hydrochloride], the IC50 (MAO-A enzyme) was 320 nM, the IC50 (human LSD1(172-833)) was < 100 nM and the IC50 (MAO-B enzyme) was 4200 nM.
In the case of `N[C@@H]1C[C@H]1c1ccc(C(=O)N2CCCCC2)cc1` (relative stereo) [Example 7, (4-(trans-2-aminocyclopropyl)phenyl)(piperidin-1-yl)methanone hydrochloride], the IC50 (MAO-A enzyme) is reported as 800 nM, the IC50 (human LSD1(172-833)) is reported as < 100 nM and the IC50 (MAO-B enzyme) is reported as > 10000 nM.
For `O=C(Nc1ccccc1)c1ccc([C@@H]2C[C@H]2NCC2CC2)cc1` (relative stereo) [Example 8, 4-(trans-2-((cyclopropylmethyl)amino)cyclopropyl)-N-phenylbenzamide hydrochloride], the IC50 (MAO-A enzyme) was 8300 nM, the IC50 (human LSD1(172-833)) was < 100 nM and the IC50 (MAO-B enzyme) was 4600 nM.
In the case of `CN(Cc1ccccc1)C(=O)c1ccc([C@@H]2C[C@H]2N)cc1` (relative stereo) [Example 9, 4-(trans-2-aminocyclopropyl)-N-benzyl-N-methylbenzamide hydrochloride], the IC50 (MAO-A enzyme) is reported as 120 nM, the IC50 (human LSD1(172-833)) is reported as < 100 nM and the IC50 (MAO-B enzyme) is reported as > 10000 nM.
In the case of `CN(Cc1ccccc1)C(=O)c1ccc([C@@H]2C[C@H]2NCC2CC2)cc1` (relative stereo) [Example 10, N-benzyl-4-(trans-2-((cyclopropylmethyl)amino)cyclopropyl)-N-methylbenzamide hydrochloride], the IC50 (MAO-A enzyme) is reported as 7000 nM, the IC50 (human LSD1(172-833)) is reported as < 100 nM and the IC50 (MAO-B enzyme) is reported as > 10000 nM.
With `O=C(Nc1ccccc1)c1cccc([C@@H]2C[C@H]2NCC2CC2)c1` (relative stereo) [Example 13, 3-(trans-2-((cyclopropylmethyl)amino)cyclopropyl)-N-phenylbenzamide hydrochloride] the IC50 (MAO-A enzyme) was > 10000 nM, the IC50 (human LSD1(172-833)) was < 100 nM and the IC50 (MAO-B enzyme) was > 10000 nM.
For `O=C(NCc1ccccc1)c1cccc([C@@H]2C[C@H]2NCC2CC2)c1` (relative stereo) [Example 14, N-benzyl-3-(trans-2-((cyclopropylmethyl)amino)cyclopropyl)benzamide hydrochloride], the IC50 (MAO-A enzyme) was 8100 nM, the IC50 (human LSD1(172-833)) was < 100 nM and the IC50 (MAO-B enzyme) was > 10000 nM.
In the case of `Cc1cnc(CNC(=O)c2ccc([C@@H]3C[C@H]3NCC3CC3)cc2)cn1` (relative stereo) [Example 15, 4-(trans-2-((cyclopropylmethyl)amino)cyclopropyl)-N-((5-methylpyrazin-2-yl)methyl)benzamide bis(trifluoroacetate)], the IC50 (MAO-A enzyme) is reported as > 10000 nM, the IC50 (human LSD1(172-833)) is reported as < 100 nM and the IC50 (MAO-B enzyme) is reported as > 10000 nM.
In the case of `O=C(NCc1ccccn1)c1ccc([C@@H]2C[C@H]2NCC2CC2)cc1` (relative stereo) [Example 16, 4-(trans-2-((cyclopropylmethyl)amino)cyclopropyl)-N-(pyridin-2-ylmethyl)benzamide bis(trifluoroacetate)], the IC50 (MAO-A enzyme) is reported as > 10000 nM, the IC50 (human LSD1(172-833)) is reported as < 100 nM and the IC50 (MAO-B enzyme) is reported as > 10000 nM.
Work on `Cc1cc(NC(=O)c2cccc([C@@H]3C[C@H]3NC3CCC3)c2)no1` (relative stereo) [Example 232, 3-(trans-2-(cyclobutylamino)cyclopropyl)-N-(5-methyl-1,2-oxazol-3-yl)benzamide hydrochloride] yielded a concentration at 1 h [1, 3] of 572 ng/g, a Kp at 1 h [1] of 3.66 and a concentration at 1 h [1, 4] of 154 ng/mL. The “platelet number, percentage of compound administration group compared to control group, mean” value (shortened to “platelet number, percentage”) ([2]; 10 mg/kg) was 102.4%, the “red blood cell number, percentage of compound administration group compared to control group, mean” value (“red blood cell number, percentage” for short) ([2]; 10 mg/kg) was 100.4% and the “white blood cell number, percentage of compound administration group compared to control group, mean” value (from here on “white blood cell number, percentage”) ([2]; 10 mg/kg) was 97.3%. The “platelet number, percentage” value ([2]; 100 mg/kg) was 93.5%, the “red blood cell number, percentage” value ([2]; 100 mg/kg) was 99.3% and the “white blood cell number, percentage” value ([2]; 100 mg/kg) was 92.4%.
With `O=C(NC1CC(F)(F)C1)c1cccc([C@@H]2C[C@H]2NC2CCC(F)(F)CC2)c1` (relative stereo) [Example 234, N-(3,3-difluorocyclobutyl)-3-(trans-2-((4,4-difluorocyclohexyl)amino)cyclopropyl)benzamide hydrochloride] the concentration at 1 h [1, 3] was 276 ng/g, the Kp at 1 h [1] was 1.58 and the concentration at 1 h [1, 4] was 175 ng/mL. For the same compound, the “platelet number, percentage” value ([2]; 10 mg/kg) was 98.8%, the “red blood cell number, percentage” value ([2]; 10 mg/kg) was 97.7% and the “white blood cell number, percentage” value ([2]; 10 mg/kg) was 76.7%. The “platelet number, percentage” value ([2]; 100 mg/kg) was 88.9%, the “red blood cell number, percentage” value ([2]; 100 mg/kg) was 101.2% and the “white blood cell number, percentage” value ([2]; 100 mg/kg) was 94.8%.
In the case of `Cc1cc(NC(=O)c2cccc([C@@H]3C[C@H]3NC3CCOCC3)c2)on1` (relative stereo) [Example 235, N-(3-methyl-1,2-oxazol-5-yl)-3-(trans-2-(tetrahydro-2H-pyran-4-ylamino)cyclopropyl)benzamide hydrochloride], the concentration at 0.5 h [1, 3] is reported as 216 ng/g, the Kp at 0.5 h [1] is reported as 1.04 and the concentration at 0.5 h [1, 4] is reported as 204 ng/mL. The “platelet number, percentage” value ([2]; 10 mg/kg) was 99.1%, the “red blood cell number, percentage” value ([2]; 10 mg/kg) was 101.1% and the “white blood cell number, percentage” value ([2]; 10 mg/kg) was 75.7%. For the same compound, the “platelet number, percentage” value ([2]; 100 mg/kg) was 96.6%, the “red blood cell number, percentage” value ([2]; 100 mg/kg) was 97.8% and the “white blood cell number, percentage” value ([2]; 100 mg/kg) was 93.0%.
`O=C(NC1CC(F)(F)C1)c1cc([C@@H]2C[C@H]2NCC2CC2)ccc1F` (relative stereo) [Example 241, 5-(trans-2-((cyclopropylmethyl)amino)cyclopropyl)-N-(3,3-difluorocyclobutyl)-2-fluorobenzamide hydrochloride] gave a concentration at 0.5 h [1, 3] of 878 ng/g, a Kp at 0.5 h [1] of 5.31 and a concentration at 0.5 h [1, 4] of 167 ng/mL. For the same compound, the “platelet number, percentage” value ([2]; 10 mg/kg) was 102.6%, the “red blood cell number, percentage” value ([2]; 10 mg/kg) was 96.9% and the “white blood cell number, percentage” value ([2]; 10 mg/kg) was 94.6%. For the same compound, the “platelet number, percentage” value ([2]; 100 mg/kg) was 89.2%, the “red blood cell number, percentage” value ([2]; 100 mg/kg) was 99.0% and the “white blood cell number, percentage” value ([2]; 100 mg/kg) was 101.9%.
